Reference: patent US20230151021A1, “Compounds and Compositions for Treating Hematologic Malignancies” (priority 2020, published 2023)
Read-outs that look alike come from different tables or passages of the source.

Columns and labels:
[1] = test system: NOD/SCID mice; test: In vivo toxicity test; conditions: 24 days; for survival: 4 mice per group
Description: […]; 4 mice per group) were intraperitoneally injected with a maximum dose of […] of Brusatol, #15 or #26 compound every other day (three times per week). The survival rate was recorded to monitor the tolerance of the compounds in these mice.
[…]. Six-week-old male NOD.CB17PrkdcSCID/J (NOD/SCID) mice (Jackson Labs, Bar Harbor, Me., USA; 4 mice per group) were intraperitoneally injected with a dose of 5 mg/kg of one of three compounds—brusatol, 15, or 26—every other day, three times per week. The mice were monitored and euthanized after 24 days of treatment. […]. […] […].

[2] = Plasma stability
[3] = Plasma stability; remark: listed apart in the source
[4] = test system: HL60, K562, MOLM14 and SU-DHL-4 cell lines; test: IC50 of Brusatol in less and more sensitive cell lines; assay type: cell-based, human; conditions: 72 hours
Description: FIGS. 5A-5F: PI3K family of proteins is crucial for Brusatol-mediated inhibitory effects. FIG. 5A: IC50 assays of Brusatol were determined in the indicated cancer cells. All of the cells were treated for 72 hours. […] NS, not significant. […] Then cells were fixed and stained with PI. Flow cytometry assays were performed to determine cell cycle progression. The subG1 population in cells was labeled as the percentage. […] FIG. 5F: The described cells were incubated with Brusatol (0, 50 nM, 100 nM) for different periods (0, 12 hours, 24 hours).

[5] = test system: Raji cells; test: cells; assay type: cell-based, human; conditions: for activity on viability of Raji cells (in words): 100 nM for 72 h
[6] = test system: AKT1, GSK3, and mTOR; test: Western blot of PI3K/AKT regulated signaling proteins; assay type: cell-based, human; conditions: Raji and SU-DHL-4 cells; 0, 50 nM, 100 nM; 0, 12 hours, 24 hours
Description: Western blot analyses were performed as previously described. Briefly, total cell lysates were separated by SDS-PAGE gel and transferred to nitrocellulose membrane. The membranes were blocked with 5% non-fat milk, probed with specific antibodies, and visualized using the Odyssey scanner (LiCor Inc., Lincoln, Nebr.).

[7] = MetID profile in mouse liver microsomes; assay type: in vitro ADME; conditions: 60 min of incubation
Description: In order to determine if 26 induces liver microsomal metabolism changes, the MetID profile of 26 in mouse liver microsomes was investigated under the same conditions as for brusatol. […] However, 87% of 26 (area %) was detected after 60 min of incubation while five identified metabolites were all in relatively small percentages.

[8] = Stability in simulated intestinal fluid
[9] = test system: HL-60 cells; test: Cell cycle assay (PI staining, flow cytometry); assay type: cell-based, human; conditions: HL-60, 100 nM, 48 hours
Description: (§1) 5 million cells were harvested, fixed with 80% ethanol for 2 hours or overnight at −20° C., then washed with PBS and incubated with Propidium iodide (PI) staining buffer (0.5 mg/ml propidium iodide in PBS with 50 μg/ml RNase A) for 30 minutes at room temperature. The stained cells were resuspended in PBS and analyzed on a FACSCalibur system (Becton Dickinson, San Jose, Calif., USA) using FlowJo software (TreeStar, San Carlos, Calif., USA).

[10] = test system: SU-DHL-4 cells; test: Cell cycle assay (PI staining, flow cytometry); assay type: cell-based, human; conditions: SU-DHL-4, 100 nM, 48 hours
Description: as §1

[11] = test system: K562 cells; test: Cell cycle assay (PI staining, flow cytometry); assay type: cell-based, human; conditions: K562, 100 nM, 48 hours
Description: as §1

[12] = test system: Raji cells; test: Cell cycle assay (PI staining, flow cytometry); assay type: cell-based, human; conditions: 100 nM, 48 hours
Description: as §1

[13] = Stability in simulated gastric fluid
[14] = test system: SU-DHL-4 cells; test: Cell viability assay (CellTiter-Glo luminescence); assay type: cell-based; conditions: Homo sapiens, SU-DHL-4, 48 h, read-out: viability of cells inhibited
[15] = test system: LCL1 cells; test: Cell viability assay (CellTiter-Glo luminescence); assay type: cell-based; conditions: Homo sapiens; LCL1, 5000 cells, 72 hours; read-out: half-maximal inhibitory concentration (IC50)
[16] = test system: 13 cell lines representing a range of hematologic malignancies; test: Cell viability in panel of hematologic malignancy derived cell lines; conditions: 100 nM, 72 hours
Description: Cell viability was determined after 72 hours by detecting luminescence. ALL, acute lymphoblastic leukemia; BL, Burkitt's lymphoma; DLBCL, diffuse large B-cell lymphoma; MCL, mantle cell lymphoma; AML, acute myeloid leukemia; MM, multiple myeloma; LCLs, lymphoblastoid cell lines.
(§2) 5000 cells as indicated were cultured in 96-well plate with 100 μl of media. On the next day, Brusatol or associated analogs were added once to the cells without media change. After treatment, the cells were incubated with 100 μl buffer for 10 minutes at room temperature following the instructions of CellTiter-Glo kit (Promega, Madison, Wis.). Luminescence was detected using a multi-mode reader Cytation 5 (BioTek, Winooski, Vt.). Brusatol or its analogs are dissolved in 100% ethanol and diluted in 1×PBS for treatment. Two independent experiments done in duplicates were performed.

[17] = test system: MOLM14 xenografts; test: In vivo tumorigenic assay using xenografts; design: species or system NOD/SCID mice; conditions: 2 mg/kg intraperitoneally three times per week, two weeks
Description: Six-week-old male NOD.CB17-Prkdc^scid/J (NOD/SCID) mice (Jackson Labs, Bar Harbor, Me., USA) were used as the human-in-mouse xeno-transplantation model. MOLM14 cells (1×10^7 cells) were injected into the subcutaneous space on the left flank of the mice. Once xenografts reached a size of 100 mm^3, Brusatol and analogs (14, 15, 26, 31) at 2 mg/kg body weight or PBS were injected intraperitoneally three times per week. Body weight and tumor size were monitored before every injection. After treatment for two weeks, the mice were euthanized by CO2 inhalation and the tumors were carefully excised. The tumor volume (mm^3) was measured and calculated using the formula (a×b×b)/2 (a, the largest diameter of two measurements; b, the smallest diameter of two measurements).

[18] = not given; remark: listed apart in the source
[19] = 60 min
[20] = 60 min; remark: listed apart in the source
[21] = test system: MOLT-4, SU-DHL-6, SU-DHL-10, RPMI-8226, and LCL1; test: Cell viability in five additional cell lines; conditions: MOLT-4, SU-DHL-6, SU-DHL-10, RPMI-8226, LCL1
Description: as §2
To investigate their inhibitory activities on the growth of EBV-associated lymphomas and other types of lymphomas, conjugates were first investigated for their effects on the viability of Raji cells, a Burkitt's lymphoma (BL) cell line, when treated at 100 nM for 72 h. […] These cell lines represent the cell models of a range of hematologic malignancies.

[22] = 5 mg/kg intraperitoneally every other day
[23] = 10 mg/kg intraperitoneally every other day

Structure (SMILES): COC(=O)[C@@]12OC[C@]34C([C@@H](O)[C@@H]1O)[C@@]1(C)CC(=O)C(O)=C(C)[C@@H]1C[C@H]3OC(=O)[C@H](OC(=O)C=C(C)C)[C@@H]24 (stereo partly drawn) [Brusatol, methyl (1R,2S,3S,3aS,3a1R,4R,6aR,7aR,11aS)-1,2,9-trihydroxy-8,11a-dimethyl-4-((3-methylbut-2-enoyl)oxy)-5,10-dioxo-1,4,5,6a,7,7a,10,11,11a,11b-decahydro-2H-3,3a1-(epoxymethano)dibenzo[de,g]chromene-3(3aH)-carboxylate]
- mice survived (of four) [1, 22]: three
- survival [1, 22]: 75%
- Plasma stability remaining % at 60 min, human [2]: 91%
- Plasma stability remaining % at 60 min, rat [3]: 100%
- fold more sensitive (IC50), MOLM14 and SU-DHL-4 compared to HL60 and K562 [4]: about 10 fold
- cytotoxicity at 0.1 µM ([5]; Homo sapiens, 100 nM, 48 hours post-treatment, read-out: viability of cells inhibited): > 80%
- IC50 ([5]; Homo sapiens, 5000 cells, 72 hours, read-out: half-maximal inhibitory concentration (IC50)): 2 to 6 nM
- protein expression of AKT1, GSK3, and mTOR (in words) [6]: significantly reduced
- parent detected after incubation in mouse liver microsomes (area %) [7]: 40%
- Stability in simulated intestinal fluid (% at 4 h) [8]: 100%
- cells in the sub-G1 phase [9]: 7.63%
- cells in the sub-G1 phase [10]: 67.9%
- cells in the sub-G1 phase [11]: 3.19%
- cells in the sub-G1 phase [12]: 68.4%
- Stability in simulated gastric fluid (% at 4 h) [13]: 109%
- cytotoxicity at 0.1 µM [14]: > 80%
- IC50 [15]: 2 to 6 nM

Structure (SMILES): COC(=O)[C@@]12OC[C@]34C([C@@H](O)[C@@H]1O)[C@@]1(C)CC(=O)C(OC(=O)CNC(=O)OC(C)(C)C)=C(C)[C@@H]1C[C@H]3OC(=O)[C@H](OC(=O)C=C(C)C)[C@@H]24 (stereo partly drawn) [Compound 15, methyl (1R,2S,3S,3aS,3a1R,4R,6aR,7aR,11aS)-9-(((tert-butoxycarbonyl)glycyl)oxy)-1,2-dihydroxy-8,11a-dimethyl-4-((3-methylbut-2-enoyl)oxy)-5,10-dioxo-1,4,5,6a,7,7a,10,11,11a,11b-decahydro-2H-3,3a1-(epoxymethano)dibenzo[de,g]chromene-3(3aH)-carboxylate]
- mice survived (of four) [1, 22]: two
- survival [1, 22]: 50%
- toxicity in vivo (in words) [1, 23]: obviously lethal for the majority of mice within the first 4 days
- survival [1, 23]: 0%
- activity on viability of Raji cells (in words) [5]: moderate inhibition
- inhibition of cell viability (in words) [16]: significantly inhibit cell viability
- Stability in simulated intestinal fluid (% at 4 h) [8]: 42%
- Stability in simulated gastric fluid (% at 4 h) [13]: 25%
- tumor size response (in words) [17]: strong and rapid inhibitory response

Structure (SMILES): COC(=O)[C@@]12OC[C@]34C([C@@H](O)[C@@H]1O)[C@@]1(C)CC(=O)C(OC(=O)C[C@H](C)N)=C(C)[C@@H]1C[C@H]3OC(=O)[C@H](OC(=O)C=C(C)C)[C@@H]24 (stereo partly drawn) [Compound 26, methyl (1R,2S,3S,3aS,3a1R,4R,6aR,7aR,11aS)-9-(((S)-3-aminobutanoyl)oxy)-1,2-dihydroxy-8,11a-dimethyl-4-((3-methylbut-2-enoyl)oxy)-5,10-dioxo-1,4,5,6a,7,7a,10,11,11a,11b-decahydro-2H-3,3a1-(epoxymethano)dibenzo[de,g]chromene-3(3aH)-carboxylate]
- mice survived (of four) [1, 22]: four
- toxicity in vivo (in words) [1, 22]: did not show any obvious signs of toxicity
- toxicity in vivo (in words) [1, 23]: did not show any obvious signs of toxicity
- Stability in simulated gastric fluid (% at 4 h): 97%
- Stability in simulated intestinal fluid (% at 4 h) [18]: 76%
- parent detected after incubation in mouse liver microsomes (area %) [7]: 87%
- percentage of brusatol converted from 26, rat plasma [19]: 60%
- percentage of brusatol converted from 26, human plasma [20]: 47%

Structure (SMILES): COC(=O)[C@@]12OC[C@]34C([C@@H](O)[C@@H]1O)[C@@]1(C)CC(=O)C(OCC(=O)NCCN)=C(C)[C@@H]1C[C@H]3OC(=O)[C@H](OC(=O)C=C(C)C)[C@@H]24 (stereo partly drawn) [Compound 40, methyl (1R,2S,3S,3aS,3a1R,4R,6aR,7aR,11aS)-9-(2-((2-aminoethyl)amino)-2-oxoethoxy)-1,2-dihydroxy-8,11a-dimethyl-4-((3-methylbut-2-enoyl)oxy)-5,10-dioxo-1,4,5,6a,7,7a,10,11,11a,11b-decahydro-2H-3,3a1-(epoxymethano)dibenzo[de,g]chromene-3(3aH)-carboxylate]
- activity on five additional cell lines (in words) [21]: moderate to good activities
- activity on viability of Raji cells (in words) [5]: moderate activity
